The values below come from US10440975B2, “Feed additive composition for reducing methane gas produced by ruminant animals” (CJ CHEILJEDANG CORPORATION, priority 2014, dated 2019).

This assay relates to rumen fluid. The assay can be described thus: Rumen simulation continuous culture system (RSCC): methane production, pH, digestibility. The format is cell-based. Particulars: vs control group. The method, then:
0.12 mL of a micromineral solution was added to 250 mL of distilled water in an 2 L of Erlenmeyer flask and stirred. Another 250 mL of distilled water was added, and then stirred for 20 minutes. Then, 250 mL of an in vitro buffer solution was added and stirred for 10 minutes. Then, 250 mL of a macromineral solution was added and stirred for 15 minutes. Then, 1.25 mL of a resazurin solution was added to the mixture and stirred. Then, the flask was sealed with aluminum foil and heated while maintaining an anaerobic condition by bubbling CO2 gas in a Hungate anaerobic culture tube. When the solution started boiling, the solution was heated for 10 more minutes and then cooled down. 50 mL of a reduction solution was added to the cooled solution to obtain a buffer.
A sampled rumen fluid was first filtered through eight-layer gauze and then through glass wool. The filtered rumen fluid was maintained in an anaerobic condition by CO2 bubbling. While maintaining the anaerobic condition by CO2 bubbling, the buffer solution prepared in 1) above was mixed with the rumen fluid (250 mL of the rumen fluid, 600 mL of the buffer solution).
10 g of a substrate was added to a fermenter. The buffer solution prepared in 1) was added into a buffer bag while maintaining the anaerobic condition. A Tedlar bag filled with CO2 gas was connected to the buffer bag, and a tube connected to the buffer bag was connected to a buffer inlet port of the fermenter lid. Then a tube connected to a gas collecting bag was connected to a gas collecting port of the fermenter lid (a tube for gas was used). A pH probe and a temperature probe were placed deep enough to reach the culture medium while not touching the impellers. In the meantime, a feed inlet tube was placed deep enough to reach the culture medium through the feeding port of the fermenter lid. The fermenter lid was then connected to the fermenter and an anaerobic condition inside the fermenter was maintained by using vacuum grease and Teflon tape. CO2 gas was introduced into the fermenter through the gas collecting port for about 10 minutes (making the inside of the fermenter anaerobic, continuously introducing CO2 gas until the initiation of cultivation). All joint connections were sealed with vacuum grease and Teflon tape. Once all devices were installed, a peristaltic pump was activated and the buffer solution was introduced into the fermenter. The anaerobic culture medium was introduced into the fermenter until it overflowed, and then the CO2 gas introduction into the fermenter was discontinued and all inlet ports were sealed. The fermenter was then connected to a circulator, and cultivation started at 39° C. with a stirring speed between 99 rpm and 102 rpm. The pH of the culture medium of the fermenter was between 6.8 and 7.1, and a temperature was maintained at between 39° C. and 40° C. A turnover rate of the culture medium was stabilized at 0.042 h^−1 while a turnover rate of the substrate was stabilized at 0.017 h^−1.
Below is an experiment on reduction of methane production conducted in accordance with the above operation method using the RSCC system of 3) of Preparation Example. A feed additive for reducing methane was added with the substrate when the substrate was added.
The RSCC system was operated for five days of adjustment, and then total gas production, methane production, and pH values of the control group were measured for three days. After the measurements of the control group were completed, DADS was added at ratios of 0.1 wt %, 0.2 wt %, and 0.4 wt % per 10 g of a substrate, and then total gas production, methane production, and pH values were measured at the same time for another three days. The methane reduction rate was measured after having an adjustment period with a newly sampled rumen fluid every time one additive examines.

Where [1] appears, read: additive 0.1 wt % per 10 g of substrate.
The mark [2] stands for this setting: additive 0.5 wt % per 10 g of substrate.

Take `COc1ccc2cc3[n+](cc2c1OC)CCc1cc2c(cc1-3)OCO2` [Berberine, 5,6-dihydro-9,10-dimethoxybenzo[g]-1,3-benzodioxolo[5,6-a]quinolizinium]: the “Methane Reduction (%)” value runs as follows: under setting [1], 6.7%; (additive 0.2 wt % per 10 g of substrate) 12.4%; under setting [2], 45.5%.
With `C=CCSSCC=C` [DADS, 4,5-dithia-1,7-octadiene diallyldisulfide], the “Methane Reduction (%)” value under setting [1] is 30.5%.
With `O=[N+]([O-])O` [Nitrate], the “Methane Reduction (%)” value is listed as 14.0% (additive 0.35 wt % per 10 g of substrate), 31.0% under setting [2] and 8.1% (additive 1.0 wt % per 10 g of substrate).
In the case of “((2R)-2-amino-3-[(S)-prop-2-enylsulfinyl] propanoic acid [Alliin]”, under setting [2], the “Methane Reduction (%)” value was 21.9%.
